Measurements as given in paper PMC7383614, “Computational Design of Enantiocomplementary Epoxide Hydrolases for Asymmetric Synthesis of Aliphatic and Aromatic Diols” (Chembiochem, 2020).

Molecular target: T1, LEH-P (thermostable limonene epoxide hydrolase) (Rhodococcus erythropolis, UniProt Q9ZAG3, T2A/S15P/A19K/E45K/T76K/T85V/N92K/Y96F, form not given)
T1 construct: gene limA; N-terminal hexa-His tag; expressed in E. coli; dimeric
Test: initial velocities of diol formation, Michaelis-Menten fit
Type: biochemical
Settings: buffer and temperature of kinetics not given (activity assays: 50 mM HEPES pH 8, 30 °C); variant SS16 from earlier study, mutations not given; read-out: K M [mM] ^[b]
Excerpt: initial velocities of diol formation, Michaelis-Menten fit on LEH-P (thermostable limonene epoxide hydrolase)

T1 sequence (Q9ZAG3 whole entry T2A/S15P/A19K/E45K/T76K/T85V/N92K/Y96F, form open): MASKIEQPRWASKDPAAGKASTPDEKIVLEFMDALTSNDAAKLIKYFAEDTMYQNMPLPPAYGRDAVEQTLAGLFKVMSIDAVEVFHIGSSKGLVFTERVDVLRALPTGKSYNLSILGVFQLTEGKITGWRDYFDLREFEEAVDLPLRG

Km: 54 ± 4 mM
Structure (SMILES): C1CC2OC2C1 (stereo not shown) [1 a, cyclopentene oxide]
